Source: ChEMBL document CHEMBL1933019, “Cell-based and in-silico studies on the high intrinsic activity of two boron-containing salbutamol derivatives at the human β₂-adrenoceptor” (Bioorg Med Chem, 2012)

Experiments:
[1] = biological target: T1, Beta-2 adrenergic receptor (Homo sapiens, UniProt P07550); assay: Displacement of [3H]-DHA from recombinant human beta2 adrenoceptor expressed in HEK293T cells; type: cell-based, HEK-293T
[2] = biological target: T1, Beta-2 adrenergic receptor; assay: Agonist activity at recombinant human beta2 adrenoceptor expressed in HEK293T cells assessed as increase in IBMX-induced cAMP accumulation using [3H]-cAMP after 30 mins by liquid scintillation counting; type: functional, cell-based, HEK-293T

T1 sequence (P07550 whole entry): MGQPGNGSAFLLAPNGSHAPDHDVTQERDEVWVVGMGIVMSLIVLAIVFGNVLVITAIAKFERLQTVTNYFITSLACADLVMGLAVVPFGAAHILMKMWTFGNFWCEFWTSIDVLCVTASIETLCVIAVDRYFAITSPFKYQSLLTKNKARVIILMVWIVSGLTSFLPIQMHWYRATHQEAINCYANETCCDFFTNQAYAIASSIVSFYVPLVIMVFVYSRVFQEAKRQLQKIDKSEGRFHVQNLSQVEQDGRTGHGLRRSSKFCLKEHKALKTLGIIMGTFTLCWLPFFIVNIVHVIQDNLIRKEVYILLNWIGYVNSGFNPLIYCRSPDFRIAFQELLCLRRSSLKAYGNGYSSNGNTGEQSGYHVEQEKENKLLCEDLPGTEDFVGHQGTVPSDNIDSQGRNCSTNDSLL

Ki [1] [nM]	EC50 [2] [nM]	SMILES
3890	166	CC(C)(C)NC[C@H](O)c1ccc2c(c1)C[OH+][B-](O)(O)O2
6610	138	CC(C)(C)NC[C@H](O)c1ccc2c(c1)C[OH+][B-](O)(c1ccccc1)O2 (some centres undefined)
